Source: publication PMC9606955, “In Vitro Activity of Essential Oils Distilled from Colombian Plants against Candida auris and Other Candida Species with Different Antifungal Susceptibility Profiles” (Molecules, 2022)

System: C. auris
Assay: Screening of antifungal activity at 256 µg/mL against C. auris
Format: cell-based, Candida auris
Conditions: screening at 256 µg/mL, clinical isolates of C. auris
Excerpt: The fungal strains used in this study were C. albicans ATCC 10231, C. albicans ATCC 64550, C. parapsilosis ATCC 22019, C. tropicalis ATCC 750, C. tropicalis ATCC 200956 (resistant to azoles and AMB), C. glabrata LMDM 34 (resistant to echinocandins), C. metapsilosis MUM 15.12, C. orthopsilosis MUM 17.13, C. lusitaniae MUM 17.08, C. krusei ATCC 6258 (Issatchenkia orientalis ATCC 6258), and C. auris CDC B11903. Additionally, nine clinical isolates were included: C. parapsilosis Synlab 406 (FLC-resistant) and eight C. auris isolates identified by MALDI-TOF MS (Bruker Daltonics, Bremen, Germany) according to Zhao et al.. These yeasts were cultured on Sabouraud Dextrose Agar (SDA; Sigma-Aldrich, St. Louis, MO, USA) for 24 h at 35 °C.
Antifungal susceptibility testing was performed according to Clinical and Laboratory Standards Institute M27, 4th Edition (CLSI standard M27, 4th Edition). Some modifications were applied for evaluation of the antifungal activity of EOs and terpenes. Initially, a screening was carried out to determine the antifungal activity of the EOs and of commercial terpenes. Stock concentrations of EOs and terpenes were prepared at 512 µg/mL and an inoculum of 2.5 × 10^3 CFU/mL of each yeast was prepared in RPMI 1640-MOPS (Sigma- Aldrich St. Louis, MO, USA). Thereafter, 100 µL of each stock solution of EOs or terpenes was dispensed in 96-well microdilution plates (Corning®, Costar®, NY, USA) and 100 µL of each yeast inoculum was added. […] MICs were visually determined at the lowest concentration that produced visual inhibition compared to the growth control. […] The results were expressed as geometric means (GM) and ranges. As an antifungal susceptibility testing control, the activity of ITC and AMB against the reference strains C. krusei ATCC 6258 and C. parapsilosis ATCC 22019 was evaluated in all experiments following the CLSI standard M27, 4th Edition. […]

Row | Compound | antifungal activity in screening against C. auris
1 | C=C(C)C1CC=C(C)C(O)C1 (mixture of isomers) [carveol] | active against only some of the clinical isolates of C. auris
2 | C=C1CC/C=C(\C)CC[C@@H]2[C@@H]1CC2(C)C (relative stereo) [trans-β-caryophyllene] | active against only some of the clinical isolates of C. auris
3 | CC1=CC(=O)[C@@H]2C[C@H]1C2(C)C [verbenone] | active against only some of the clinical isolates of C. auris
